Measured values from ChEMBL document CHEMBL3885881, “DrugMatrix”.

Species on record: Rattus norvegicus
Assay type: toxicity, organism-based, Sprague-Dawley
Conditions: in vivo, po, 24 h, route oral GAVAGE, time 1 day, vehicle 100 % WATER; for ABSOLUTE BASOPHIL / ABSOLUTE EOSINOPHIL / ABSOLUTE LYMPHOCYTE / ABSOLUTE MONOCYTE / BASOPHIL / EOSINOPHIL / ERYTHROCYTE COUNT / HEMATOCRIT / HEMOGLOBIN / LEUKOCYTE COUNT / LYMPHOCYTE / MEAN CORPUSCULAR HEMOGLOBIN / MEAN CORPUSCULAR HEMOGLOBIN CONCENTRATION / MEAN CORPUSCULAR VOLUME / MONOCYTE / NEUTROPHIL / PLATELET COUNT: tissue Blood; for ALANINE AMINOTRANSFERASE / ALBUMIN / ALKALINE PHOSPHATASE / ASPARTATE AMINOTRANSFERASE / BLOOD UREA NITROGEN / CARBON DIOXIDE / CHLORIDE / CHOLESTEROL / CREATINE PHOSPHOKINASE / CREATININE / GLUCOSE / LACTATE DEHYDROGENASE / LIPASE / PHOSPHORUS / POTASSIUM / SODIUM / TOTAL BILIRUBIN / TOTAL PROTEIN / URIC ACID: tissue Plasma
[1] = 0 mg/kg, vehicle control, dose level Control

Description: DrugMatrix - Regimen: Single

Q: `COCCc1ccc(OCC(O)CNC(C)C)cc1` (configuration not stated) [METOPROLOL] was tested. Which ABSOLUTE BASOPHIL [1] did it give?
A: 63.3 cells/µL

Q: And the ABSOLUTE EOSINOPHIL [1]?
A: 66.7 cells/µL

Q: And the ABSOLUTE LYMPHOCYTE [1]?
A: 8010 cells/µL

Q: And the ABSOLUTE MONOCYTE [1]?
A: 240 cells/µL

Q: What about the BASOPHIL [1] of the same compound?
A: 0.6%

Q: And the EOSINOPHIL [1]?
A: 0.6%

Q: What about the “ERYTHROCYTE COUNT” value [1] of the same compound?
A: 6.25 x10E6/uL

Q: And the HEMATOCRIT [1]?
A: 40.47%

Q: And the HEMOGLOBIN [1]?
A: 12.83 G/DL

Q: What about the “LEUKOCYTE COUNT” value [1] of the same compound?
A: 10.19 x10E3/uL

Q: What about the LYMPHOCYTE [1] of the same compound?
A: 78.7%

Q: What about the “MEAN CORPUSCULAR HEMOGLOBIN” value [1] of the same compound?
A: 20.53 pg

Q: And the “MEAN CORPUSCULAR HEMOGLOBIN CONCENTRATION” value [1]?
A: 31.73 G/DL

Q: What about the “MEAN CORPUSCULAR VOLUME” value [1] of the same compound?
A: 64.67 fL

Q: What about the MONOCYTE [1] of the same compound?
A: 2.5%

Q: What about the NEUTROPHIL [1] of the same compound?
A: 17.07%

Q: And the “PLATELET COUNT” value [1]?
A: 1297 x10E3/uL

Q: What about the “ALANINE AMINOTRANSFERASE” value [1] of the same compound?
A: 32.67 u/L

Q: What about the ALBUMIN [1] of the same compound?
A: 3.9 G/DL

Q: What about the “ALKALINE PHOSPHATASE” value [1] of the same compound?
A: 374 u/L

Q: And the “ASPARTATE AMINOTRANSFERASE” value [1]?
A: 64.33 u/L

Q: What about the “BLOOD UREA NITROGEN” value [1] of the same compound?
A: 14 mg/dL

Q: And the “CARBON DIOXIDE” value [1]?
A: 45.67 mmol/L

Q: And the CHLORIDE [1]?
A: 103 MEQ/L

Q: And the CHOLESTEROL [1]?
A: 82.67 mg/dL

Q: And the “CREATINE PHOSPHOKINASE” value [1]?
A: 216.33 u/L

Q: What about the CREATININE [1] of the same compound?
A: 0.17 mg/dL

Q: What about the GLUCOSE [1] of the same compound?
A: 161.33 mg/dL

Q: And the “LACTATE DEHYDROGENASE” value [1]?
A: 103.67 u/L

Q: And the LIPASE [1]?
A: 8.67 u/L

Q: And the PHOSPHORUS [1]?
A: 11 mg/dL

Q: What about the POTASSIUM [1] of the same compound?
A: 6.83 MEQ/L

Q: What about the SODIUM [1] of the same compound?
A: 144.67 MEQ/L

Q: And the “TOTAL BILIRUBIN” value [1]?
A: 0.27 mg/dL

Q: What about the “TOTAL PROTEIN” value [1] of the same compound?
A: 6.27 G/DL

Q: And the “URIC ACID” value [1]?
A: 0.67 mg/dL

Q: And the ABSOLUTE BASOPHIL (120 mg/kg, dose level High)?
A: 66.7 cells/µL

Q: What about the ABSOLUTE EOSINOPHIL (120 mg/kg, dose level High) of the same compound?
A: 90 cells/µL

Q: And the ABSOLUTE LYMPHOCYTE (120 mg/kg, dose level High)?
A: 8230 cells/µL

Q: What about the ABSOLUTE MONOCYTE (120 mg/kg, dose level High) of the same compound?
A: 290 cells/µL

Q: What about the BASOPHIL (120 mg/kg, dose level High) of the same compound?
A: 0.6%

Q: What about the EOSINOPHIL (120 mg/kg, dose level High) of the same compound?
A: 0.9%

Q: And the “ERYTHROCYTE COUNT” value (120 mg/kg, dose level High)?
A: 6.76 x10E6/uL

Q: What about the HEMATOCRIT (120 mg/kg, dose level High) of the same compound?
A: 44.17%

Q: What about the HEMOGLOBIN (120 mg/kg, dose level High) of the same compound?
A: 14.1 G/DL

Q: What about the “LEUKOCYTE COUNT” value (120 mg/kg, dose level High) of the same compound?
A: 10.39 x10E3/uL

Q: And the LYMPHOCYTE (120 mg/kg, dose level High)?
A: 79.03%

Q: And the “MEAN CORPUSCULAR HEMOGLOBIN” value (120 mg/kg, dose level High)?
A: 20.87 pg

Q: And the “MEAN CORPUSCULAR HEMOGLOBIN CONCENTRATION” value (120 mg/kg, dose level High)?
A: 31.9 G/DL

Q: What about the “MEAN CORPUSCULAR VOLUME” value (120 mg/kg, dose level High) of the same compound?
A: 65.33 fL

Q: And the MONOCYTE (120 mg/kg, dose level High)?
A: 2.8%

Q: What about the NEUTROPHIL (120 mg/kg, dose level High) of the same compound?
A: 16.1%

Q: And the “PLATELET COUNT” value (120 mg/kg, dose level High)?
A: 1170 x10E3/uL

Q: And the “ALANINE AMINOTRANSFERASE” value (120 mg/kg, dose level High)?
A: 33.33 u/L

Q: And the ALBUMIN (120 mg/kg, dose level High)?
A: 3.83 G/DL

Q: What about the “ALKALINE PHOSPHATASE” value (120 mg/kg, dose level High) of the same compound?
A: 431 u/L

Q: What about the “ASPARTATE AMINOTRANSFERASE” value (120 mg/kg, dose level High) of the same compound?
A: 59 u/L

Q: What about the “BLOOD UREA NITROGEN” value (120 mg/kg, dose level High) of the same compound?
A: 13 mg/dL

Q: And the “CARBON DIOXIDE” value (120 mg/kg, dose level High)?
A: 38.67 mmol/L

Q: And the CHLORIDE (120 mg/kg, dose level High)?
A: 103.33 MEQ/L

Q: What about the CHOLESTEROL (120 mg/kg, dose level High) of the same compound?
A: 74 mg/dL

Q: And the “CREATINE PHOSPHOKINASE” value (120 mg/kg, dose level High)?
A: 229.33 u/L

Q: And the CREATININE (120 mg/kg, dose level High)?
A: 0.3 mg/dL

Q: And the GLUCOSE (120 mg/kg, dose level High)?
A: 178 mg/dL

Q: What about the “LACTATE DEHYDROGENASE” value (120 mg/kg, dose level High) of the same compound?
A: 77.67 u/L

Q: What about the LIPASE (120 mg/kg, dose level High) of the same compound?
A: 8 u/L

Q: What about the PHOSPHORUS (120 mg/kg, dose level High) of the same compound?
A: 12.3 mg/dL

Q: What about the POTASSIUM (120 mg/kg, dose level High) of the same compound?
A: 6.47 MEQ/L

Q: What about the SODIUM (120 mg/kg, dose level High) of the same compound?
A: 144 MEQ/L

Q: And the “TOTAL BILIRUBIN” value (120 mg/kg, dose level High)?
A: 0.23 mg/dL

Q: And the “TOTAL PROTEIN” value (120 mg/kg, dose level High)?
A: 6.2 G/DL

Q: What about the “URIC ACID” value (120 mg/kg, dose level High) of the same compound?
A: 0.9 mg/dL
